Source: patent US20230125749A1, “COMPOSITION CONTAINING PEPTIDE OR PEPTIDE COMPOUND AS ACTIVE INGREDIENT, AND MEDICAL USE THEREFOR” (AJOU UNIVERSITY INDUSTRY-ACADEMIC COOPERATION FOUNDATION, priority 2019, published 2023)

Test system: intraperitoneal macrophages
Assay: Fluorescence-labeled cells among intraperitoneal macrophages after oral administration of fluorescence-conjugated peptides to normal mice
Format: in vivo, mouse
Conditions: measured after 48 and 72 hours, FIG. 10
Description: Furthermore, peptides 1, 2, and 4 were orally administered to normal mice after conjugation with each different fluorescence, and the frequency of fluorescence-labeled cells was measured among intraperitoneal macrophages after 48 and 72 hours.

For LICPEKYCNKVHT [P1], the “time for which the fluorescence-labeled peptide was maintained among intraperitoneal macrophages” value was “up to 72 hours”.
